One assay deals with Sprague–Dawley rats. Briefly: DRL 72-s schedule of reinforcement in rats. The assay is classed as in vivo, rat. As to conditions: for Lever Presses Mean / Reinforcers Mean: HSD rats DRL-72-s, raw data. An excerpt:
Each chamber was enclosed in a melamine sound-attenuating cubicle. A white noise generator provided masking noise. The interior of each chamber consisted of three levers mounted on one wall with a house light mounted on the opposite wall. The house light was turned on at initiation of each test session and was turned off at the termination of each session. A water access port was situated next to the lever in the middle of the wall, wherein a reinforced response caused a clicker apparatus to sound paired with a dipper (0.02-ml cup) to be lifted from a water trough to an opening in the floor of the access port for 4 s.
Rats were initially trained under an alternative fixed ratio 1 water reinforcement schedule with a fixed 1-min time schedule for automatic reinforcement. Thus, each response was reinforced, with water also provided every minute in the absence of a response. […] Following acquisition of lever-pressing behavior, rats were trained daily on DRL 18-s sessions for ~2 weeks, following which they were advanced to DRL 72-s sessions. Responding on these sessions became stable after ~8 weeks. Experimental test sessions lasted for 1 h and were conducted 5 days/week during light hours.
(§1) Drugs were administered to the animals once or twice weekly with at least 1 week between subsequent drugs to minimize possible carryover effects. Drug treatments were administered on Tuesdays and Fridays. No treatments were administered on other test days. Wednesdays were control days. “Control” behavior was calculated as the pooled mean lever presses or reinforcers received during Wednesday sessions across all Wednesdays for the duration of each study. Performance was normalized to percent of control by dividing total responses (or reinforcers) for each drug or vehicle treatment by the mean number of responses (reinforcers) in the respective pooled control condition, multiplied by 100.
(§2) The data analyses were conducted on the raw response and reinforcement data. All behavioral data are expressed as the mean ± s.e.m. normalized to the control condition.

Assay [1] has as its system mice lacking OX2 receptors. As to the kind of experiment: DRL 36-s schedule of reinforcement in OX2 KO mice. The format is in vivo, mouse. Particulars: for Lever Presses Mean / Reinforcers Mean: OX2 KO mice DRL-36-s, raw data; for Lever presses emitted / Reinforcers received: mice lacking OX2 receptors, DRL-36-s.
Description: (§3) Rats were acclimated to housing conditions for 4 days, followed by sham dosing once daily for 3 days, prior to the experiment. For DRL experiments, male Sprague–Dawley rats weighing between 300 and 350 g at the beginning of the behavioral experiments (Holtzman, Madison, WI) were housed in pairs. For mouse DRL studies, male C57Bl/6 mice (Taconic Farms, Hudson, NY) or mice lacking either OX1 or OX2 receptors, around 8 weeks of age, were obtained from private breeding colonies at Taconic Farms (Hudson, NY). OX1 and OX2 receptor knockout mice were generated using in vitro fertilization of embryos in C57Bl/6 female mice with sperm harvested from male mice obtained from the University of Texas Southwestern Medical Center (Dallas, TX), and backcrossed for at least 10 generations. Mice and rats were housed in separate colony rooms, which were maintained at 22°C and 60% relative humidity. For rat DRL experiments, water was available for a 20-min period following the daily behavioral session. Based on recommendations from the animal care and use committee, the mouse DRL assay was developed using food deprivation rather than water deprivation. […] All experiments were conducted during the light cycle and in compliance with the Guide for the Care and Use of Laboratory Animals under protocols approved by a local animal care and use committee.
(§4) The levers in these chambers were mounted on one wall with an adjacent food magazine next to the lever in the middle of the wall. A reinforced response caused a clicker apparatus to activate and the pellet feeder to deposit one 45-mg sucrose pellet (BioServ, Frenchtown, NJ) into the food magazine. The house light, which was mounted on the ceiling, was turned on when the session began, remained on throughout the entire session, and was turned off at the end of the session. Each experimental chamber was enclosed in a melamine sound-attenuating cubicle and equipped with a white noise generator to provide masking noise.
(§5) Each mouse was initially trained under a variable time 60-s operant schedule for 5 days, followed by fixed ratio-1 ratio schedule for 5 days. After the mice had acquired lever-pressing behavior, they were trained during daily DRL 6-s sessions for ~1 week, then mice progressed through weekly ascending DRL requirements (12, 18, 24, 30 s) before moving to DRL 36-s sessions. […] Experimental sessions lasted for 45 min and were conducted 5 days/week during light hours.
as §1, §2

Assay [2] concerns mice lacking OX1 receptors. Briefly: DRL 36-s schedule of reinforcement in OX1 KO mice. The assay is classed as in vivo, mouse. As to conditions: for Lever Presses Mean / Reinforcers Mean: OX1 KO mice DRL-36-s, raw data; for Lever presses emitted / Reinforcers received: DRL-36-s.
Description: as §3, §4, §5, §1, §2

Another assay relates to C57Bl/6 mice. As to the kind of experiment: DRL 36-s schedule of reinforcement in wild-type mice. The format is in vivo, mouse. Particulars: for Lever Presses Mean / Reinforcers Mean: WT mice DRL-36-s, raw data.
Description: as §4, §5, §1, §2

Assay [3] relates to c-Fos protein in rat medial prefrontal cortex. As to the kind of experiment: Restraint-stress-induced c-Fos activation (ELISA). As to conditions: 3 mg/kg IP 30 min before 20 min restraint, 3 mg/kg. (An ELISA detects its analyte on a solid surface through an enzyme-linked reagent.)
Description: Thirty min later, rats were restrained in a rigid plastic flat-bottom restraint tube (Braintree Scientific, Inc.; Braintree, MA, USA) for 20 min. After the 20 min stress period, rats were moved to a new cage and housed individually. Rats were sacrificed 2 h after stress onset. […] Immediately after sacrifice, brains were removed, the medial prefrontal cortex (mPFC), a brain area implicated in the pathophysiology of depression, was dissected from both hemispheres and frozen in 1.5 ml centrifuge tubes in dry ice, and stored at −80°C for later analysis.
Frozen mPFC tissues were removed from the −80°C freezer and placed on ice. Tissue was homogenized with a dounce homogenizer. The nuclear extract was prepared from the homogenized samples as per manufacturer's instructions using a CHEMICON ®Nuclear Extraction Kit (Millipore; Billerica, MA, USA). Protein concentrations were determined in the nuclear extracts using the Pierce BCA Protein Assay kit (Pierce Biotechnology, Inc., Rockford, IL, USA). Nuclear fractions were then assayed for Fos protein levels using the Pierce c-Fos Transcription Factor Kit (Pierce Biotechnology, Inc., Rockford, IL, USA), according to the manufacturer's instructions. […] Data were analyzed and plotted using GraphPad Prism (GraphPad Software, Inc.; La Jolla, CA, USA).
Setting [4] is: 10 mg/kg, positive control in the SB334867 experiment.
Where [5] appears, read: rats DRL-72-s, 10 mg/kg, normalized to control days.
Setting [6] is: rats DRL-72-s, 10 mg/kg, positive control in the SB334867 experiment.
Where [7] appears, read: mice lacking OX1 receptors, 15 mg/kg.
Where [8] appears, read: mice lacking OX1 receptors, 20 mg/kg.

The results in this text go back to paper PMC3904085 (Frontiers in Neuroscience, 2014).

Entries after “also recorded” stand apart in the source; their conditions may differ.

For `CN(C)CCCN1c2ccccc2CCc2ccccc21` [imipramine], the “Lever Presses Mean” value in the assay with Sprague–Dawley rats (10 mg/kg, positive control in the LSN2424100 experiment) stood at 55.71; in the assay with Sprague–Dawley rats (setting [4]), 49.00; with Sprague–Dawley rats (dose 1 mg/kg), 77.50; in the assay with Sprague–Dawley rats (dose 3 mg/kg), 68.42; with Sprague–Dawley rats (dose 10 mg/kg), 46.17; in assay [1] (dose 10 mg/kg) it was 165.25. Further, the “Lever Presses Mean” value in assay [1] (dose 15 mg/kg) is listed as 116.88; in assay [2] (dose 3 mg/kg), 177.63; in assay [2] (dose 10 mg/kg), 174.13; in assay [2] (dose 15 mg/kg) it was 128.50. For the same molecule, the “Reinforcers Mean” value in the assay on Sprague–Dawley rats (setting [4]) was determined as 18.57; with Sprague–Dawley rats (dose 1 mg/kg) it was 9.92; with Sprague–Dawley rats (dose 3 mg/kg) it was 15.17; in the assay on Sprague–Dawley rats (dose 10 mg/kg), 20.33; in assay [1] (dose 10 mg/kg) it was 27.88; in assay [1] (dose 15 mg/kg), 33.00. Moreover, the “Reinforcers Mean” value in assay [2] (dose 10 mg/kg) is recorded as 24.25; in assay [2] (dose 15 mg/kg), 31.13. Further, the Reinforcers received in the assay with Sprague–Dawley rats (setting [5]) was 210 % of control; in the assay on Sprague–Dawley rats (setting [6]) it was 160 % of control; in assay [1] (15 mg/kg), 140 % of control; in assay [2] (setting [7]), 206 % of control. Also, in the assay on Sprague–Dawley rats (setting [5]), the “Total lever presses emitted” value is 51 % of control. Also, the Lever presses in the assay on Sprague–Dawley rats (setting [6]) is listed as 64 % of control. For the same molecule, the “Effect on DRL behavior (lever presses, reinforcers), in words” value in the assay with Sprague–Dawley rats (rats DRL-72-s, doses of 1 and 3 mg/kg) is recorded as “no significant effect on behavior”. Further, the Lever presses emitted in assay [1] (15 mg/kg) is on record as 70 % of control; in assay [2] (setting [7]), 63 % of control. Also, the “Effect on lever pressing, in words” value in assay [2] (mice lacking OX1 receptors, doses lower than 15 mg/kg) is “did not affect lever pressing”.
As for `Cc1nc2ccc(NC(=O)Nc3ccnc4cccnc34)cc2o1` [SB334867], the “Lever Presses Mean” value in the assay with Sprague–Dawley rats (dose 3 mg/kg) was determined as 76.57; in the assay with Sprague–Dawley rats (dose 10 mg/kg), 70.71; in the assay with Sprague–Dawley rats (dose 30 mg/kg IP), 71.86; in the assay with C57Bl/6 mice (dose 3 mg/kg), 162.86; in the assay on C57Bl/6 mice (dose 10 mg/kg) it was 157.57; with C57Bl/6 mice (dose 20 mg/kg), 148.57. The “Lever Presses Mean” value in the assay with C57Bl/6 mice (dose 40 mg/kg) amounted to 87.67; in assay [1] (dose 1 mg/kg) it was 175.50; in assay [1] (dose 3 mg/kg), 155.75; in assay [1] (dose 10 mg/kg), 167.75; in assay [1] (dose 20 mg/kg) it was 149.50; in assay [1] (dose 40 mg/kg), 27.38. Further, the “Lever Presses Mean” value in assay [2] (dose 1 mg/kg) was 209.75; in assay [2] (dose 3 mg/kg) it was 169.00; in assay [2] (dose 10 mg/kg), 163.63; in assay [2] (dose 20 mg/kg), 141.88; in assay [2] (dose 40 mg/kg) it was 68.13. Besides, the “Reinforcers Mean” value is listed as 11.00 in the assay on Sprague–Dawley rats (dose 3 mg/kg); 12.43 in the assay with Sprague–Dawley rats (dose 10 mg/kg); 11.00 in the assay with Sprague–Dawley rats (dose 30 mg/kg IP); 17.14 in the assay with C57Bl/6 mice (dose 3 mg/kg); 16.14 with C57Bl/6 mice (dose 10 mg/kg); 18.43 with C57Bl/6 mice (dose 20 mg/kg). For the same molecule, the “Reinforcers Mean” value is reported as 22.33 in the assay on C57Bl/6 mice (dose 40 mg/kg); 19.50 in assay [1] (dose 1 mg/kg); 21.50 in assay [1] (dose 3 mg/kg); 22.75 in assay [1] (dose 10 mg/kg); 26.25 in assay [1] (dose 20 mg/kg); 17.50 in assay [1] (dose 40 mg/kg). Moreover, the “Reinforcers Mean” value in assay [2] (dose 1 mg/kg) stood at 15.00; in assay [2] (dose 3 mg/kg) it was 23.88; in assay [2] (dose 10 mg/kg), 22.88; in assay [2] (dose 20 mg/kg) it was 28.75; in assay [2] (dose 40 mg/kg), 21.38. For the same molecule, the “Change in reinforcers received or total lever presses made, in words” value in the assay with Sprague–Dawley rats (rats DRL-72-s, doses up to 30 mg/kg) is listed as “did not produce a significant change”. For the same molecule, in the assay on C57Bl/6 mice (C57Bl/6 mice DRL-36-s, up to 40 mg/kg), the “Effect on lever presses emitted or reinforcers received, in words” value is on record as “did not significantly affect”. Further, the Lever presses emitted result in assay [1] (40 mg/kg) was “less than 20 % of control”; in assay [2] (setting [8]), 75 % of control; in assay [2] (mice lacking OX1 receptors, 40 mg/kg) it was 35 % of control. Moreover, the Reinforcers received in assay [1] (40 mg/kg) is recorded as 75 % of control; in assay [2] (setting [8]), 166 % of control; in assay [2] (mice lacking OX1 receptors, 40 mg/kg, not significant), 123%.
Consider `Cc1nnc2n1-c1ccc(Cl)cc1C(c1ccccc1)=NC2` [alprazolam], for which the “Effect on restraint stress-induced increase in c-fos expression in prefrontal cortex” value in assay [3] is reported as “attenuated; also recorded: blocked”.
